*: point of attachment. FITC = O=C1OC2(c3ccc(O)cc3Oc3cc(O)ccc32)c2ccc(NC(=S)*)cc21; AEEA = NCCOCCOCC(=O)O
Assays:
c-KIT2 G4 [1] = assay: CD melting, thermal stabilization of c-KIT2 G4; type: binding, human; conditions: for ΔT1/2 of c-KIT2 G4: CD melting at 264 nm, 2 mol equiv of peptide with respect to G4, 2 μM DNA, 5 mM KH2PO4/K2HPO4 pH 7.0, 20 mM KCl, average of three, T1/2 c-KIT2 alone 59.5°C; for ΔΔT1/2, change in c-KIT2 G4-stabilizing properties with respect to Myb^397–415: CD melting, 2 mol equiv peptide, difference to Myb^397–415
From the text: The buffer baseline was subtracted from each spectrum.

U2OS cells = assay: Viability assay (crystal violet), U2OS; type: cell-based; conditions: for Impact on cancer cell viability, peptides in native form: unconjugated peptides
Description: U2OS, HCT116 and MDA-MB-231 cells were purchased from the ATCC and grown in Dulbecco modified Eagle's medium (DMEM; EuroClone, Milan, Italy; ECM0728L) supplemented with 10% Fetal Bovine Serum (FBS, ThermoFisher Scientific/Gibco, Waltham, MA, USA; 10270-106), 2 mM L-glutamine and antibiotics in a humidified incubator at 37°C with 5% CO2 and atmospheric O2 concentration. Cell lines were authenticated and tested to be mycoplasma-free.
U2OS, HCT116, and MDA-MB-231 cells were seeded in 24-well plates at a density of 1 × 10^4, 20 × 10^3 and 12 × 10^3 for each well, respectively. After 24 h, cells were treated with the indicated peptides and incubated at 37°C for additional 72 h. Upon treatment completion, cell medium was removed, the wells were washed twice in phosphate-buffered saline (PBS) and fixed with 4% formaldehyde for 15 min at room temperature (RT). After washing, 500 μl of crystal violet staining solution (Sigma-Aldrich, St. Louis, MO, USA) was added to each well and incubated for 30 min at RT. Finally, the plates were rinsed twice with water, air-dried and cell pellets were dissolved in 400 μl of a 10% aqueous solution of acetic acid. In total, 200 μl of each sample was transferred to a 96-well plate, and the optical density was measured at 570 nm (OD570) with an ELISA reader (Thermo Scientific, Waltham, MA, USA). The average absorbance in each condition was used to calculate the viability expressed as a percentage of treated vs untreated conditions (CTR).

c-KIT2 G4 [2] = assay: Isothermal titration calorimetry (ITC) with c-KIT2 G4; type: binding, human; conditions: ITC at 25°C, triplicate; for Ka: c-KIT2 G4 16–20 μM, peptide 280–400 μM, 5 mM KH2PO4/K2HPO4, 20 mM KCl, pH 7.0; for Kd: c-KIT2 G4, Kd = 1/Ka
Description: ITC experiments were conducted at 25°C using a nano-ITC Low Volume calorimeter (TA instruments, Lindon, UT, USA). DNA and peptide solutions were prepared using the same batch of buffer (5 mM KH2PO4/K2HPO4 buffer containing 20 mM KCl, pH 7.0) to prevent differences in buffer composition and pH. Each titration consisted of 25 injections of a 2 μl peptide solution (280–400 μM) sequentially injected using a computer-controlled 50 μl syringe, into the calorimetric vessel (190 μl) containing the oligonucleotide (16–20 μM). A spacing of 300 s between each injection was applied to allow the system to reach the equilibrium. The heat generated by peptide dilution was assessed in a control experiment by injecting the peptide solution into the buffer (Supplementary Figure S30). All measurements were performed in triplicate. Subsequently, the interaction heat for each injection was calculated considering the correction for the heat of peptide dilution. The corrected heat values were plotted as a function of the molar ratio to provide binding isotherms. The isotherms were fitted with a multiple-sites binding model using the NanoAnalyze software (TA instruments) provided with the instrument. This analysis provided the equilibrium binding constant (Ka), binding enthalpy (ΔH°), and stoichiometry of interaction (n). The equilibrium dissociation constant (Kd), Gibbs free-energy change and entropy change were determined using the following relationships: Kd = 1/Ka, ΔG° = -RT ln Ka (R = 8.314 J mol^−1 K^−1, T = 298.15 K), and TΔS° = ΔH° – ΔG°.

c-KIT2 G4 [3] = assay: Microscale thermophoresis (MST) binding to c-KIT2 G4; parameters: species or system human; conditions: 25°C, 20 nM FITC-labelled peptide, DNA serial dilution, 5 mM KH2PO4/K2HPO4 pH 7.0, 20 mM KCl, 0.1% Tween, 5% DMSO
Description: MST experiments were conducted using a Monolith NT.115 instrument (NanoTemper Technologies, Munich, Germany) at 25°C with medium MST power settings. […] DNA samples were also diluted using the same buffer supplemented with 0.1% Tween. During MST experiments, the concentration of the labelled peptide was kept constant at 20 nM, while a serial dilution of the investigated DNA molecules (ranging from 10 or 20 μM) was prepared and mixed with the peptide solution in a 1:1 volume ratio. All the samples, with a final concentration of 5% DMSO, were loaded into standard capillaries (NanoTemper Technologies) for MST measurements. Data analysis was carried out using the MO.Affinity Analysis (v2.3) software provided with the instrument.

FITC-Myb397-415 [4] = target: T1, FITC-Myb397-415 (UniProt P11938); assay: MST; conditions: 2'-F-ANA-guanosine at bold G; positions lost in the text; 5 mM KH2PO4/K2HPO4 pH 7.0, 20 mM KCl (LiCl for c-MYC stock), 25 C; MST with 0.1% Tween and 5% DMSO, 20 nM FITC-peptide
T1 sequence: NHTGNSIRHRFRVYLSKRL

FITC-Myb397-415 [5] = target: T2, FITC-Myb397-415 (UniProt P11938 397-415); assay: microscale thermophoresis; 5 mM KH2PO4/K2HPO4, 20 mM KCl (c-MYC stock annealed in LiCl), pH 7.0; MST 25 C with 0.1% Tween, 5% DMSO, 20 nM labelled peptide, DNA titrated (stocks from 10 or 20 uM, mixed 1:1); ITC 25 C; conditions: tags: N-terminal FITC-O2Oc, C-terminal NH2
T2 chain: {FITC-AEEA}-NHTGNSIRHRFRVYLSKRL-NH2

FITC-Myb397-415 [6] = target: T2, FITC-Myb397-415; assay: MST; 20 mM K+; 5 mM KH2PO4/K2HPO4 pH 7.0, 20 mM KCl (LiCl for c-MYC stock), 25 C; MST with 0.1% Tween and 5% DMSO, 20 nM FITC-peptide; conditions: hybrid G4
Myb397-415 = target: T3, Myb397-415 (UniProt P11938 397-415); assay: isothermal titration calorimetry; 5 mM KH2PO4/K2HPO4, 20 mM KCl (c-MYC stock annealed in LiCl), pH 7.0; MST 25 C with 0.1% Tween, 5% DMSO, 20 nM labelled peptide, DNA titrated (stocks from 10 or 20 uM, mixed 1:1); ITC 25 C; conditions: tags: N-acetyl; C-terminal NH2; chain copies: 3; parallel G4
T3 chain: NHTGNSIRHRFRVYLSKRL

NHTGNSIRHRFRVALSKRL [Myb^A410]
ΔT1/2 of c-KIT2 G4 (c-KIT2 G4 [1]): 13.6 (±0.2) °C

NHTGNSIRHRFRAYLSKRL [Myb^A409]
ΔT1/2 of c-KIT2 G4 (c-KIT2 G4 [1]): 14.7 (±0.6) °C

Ac-NHTGNSIRHRFRVYLAKRL-NH2 [Myb^A412]
Impact on cancer cell viability, peptides in native form (U2OS cells; 72 h treatment): unable to significantly impact cancer cells viability
Ka (c-KIT2 G4 [2]): 5.3 (±0.8) ×10^6 M^−1
Kd (c-KIT2 G4 [2]): 187 nM
ΔT1/2 of c-KIT2 G4 (c-KIT2 G4 [1]): 23.3 (±0.2) °C
ΔΔT1/2, change in c-KIT2 G4-stabilizing properties with respect to Myb^397–415 (c-KIT2 G4 [1]): 6.0 °C
Kd (c-KIT2 G4 [3]): ~130 nM

NHTGNSIRHRARVYLSKRL [Myb^A407]
ΔT1/2 of c-KIT2 G4 (c-KIT2 G4 [1]): 17.8 (±0.2) °C

NHTGNSIAHRFRVYLSKRL [Myb^A404]
ΔT1/2 of c-KIT2 G4 (c-KIT2 G4 [1]): 16.6 (±0.2) °C

NHTGNAIRHRFRVYLSKRL [Myb^A402]
ΔT1/2 of c-KIT2 G4 (c-KIT2 G4 [1]): 18.5 (±0.2) °C

NHTGNSARHRFRVYLSKRL [Myb^A403]
ΔT1/2 of c-KIT2 G4 (c-KIT2 G4 [1]): 17.7 (±0.2) °C

Ac-NHTANSIRHRFRVYLSKRL-NH2 [Myb^A400]
Impact on cancer cell viability, peptides in native form (U2OS cells; 72 h treatment): unable to significantly impact cancer cells viability
Ka (c-KIT2 G4 [2]): 7.3 (±1.3) ×10^6 M^−1
Kd (c-KIT2 G4 [2]): 137 nM
ΔT1/2 of c-KIT2 G4 (c-KIT2 G4 [1]): 21.1 (±0.4) °C
ΔΔT1/2, change in c-KIT2 G4-stabilizing properties with respect to Myb^397–415 (c-KIT2 G4 [1]): 3.8 °C
Kd (c-KIT2 G4 [3]): ~170 nM

RRRRRRRW-GG-NHTGNSIRHRFRVYLAKRL [R7W-Myb^A412, Myb^A412 N-terminally conjugated to the cell-penetrating peptide R7W via a glycine–glycine spacer]
Inhibition of tumour cell growth compared with the other R7W-conjugated peptides (U2OS cells; 72 h, at the 5 μM concentration): slightly more effective than the others
Inhibition of tumour cell growth, R7W-conjugated peptides (U2OS cells; 72 h treatment): essentially to the same extent as R7W-Myb^397–415

TAGGGTTAGGGTTAGGGTTAGGG [HT-FANA]
Kd (FITC-Myb397-415 [4]): 140 nM

NHTGASIRHRFRVYLSKRL [Myb^A401]
ΔT1/2 of c-KIT2 G4 (c-KIT2 G4 [1]): 19.7 (±0.2) °C

NHTGNSIRHRFRVYASKRL [Myb^A411]
ΔT1/2 of c-KIT2 G4 (c-KIT2 G4 [1]): 19.5 (±0.4) °C

NHTGNSIRHAFRVYLSKRL [Myb^A406]
ΔT1/2 of c-KIT2 G4 (c-KIT2 G4 [1]): 12.1 (±0.3) °C

AHTGNSIRHRFRVYLSKRL [Myb^A397]
ΔT1/2 of c-KIT2 G4 (c-KIT2 G4 [1]): 18.0 (±0.2) °C

NHTGNSIRHRFRVYLSARL [Myb^A413]
ΔT1/2 of c-KIT2 G4 (c-KIT2 G4 [1]): 10.7 (±0.6) °C

NHTGNSIRARFRVYLSKRL [Myb^A405]
ΔT1/2 of c-KIT2 G4 (c-KIT2 G4 [1]): 16.0 (±0.2) °C

NHTGNSIRHRFAVYLSKRL [Myb^A408]
ΔT1/2 of c-KIT2 G4 (c-KIT2 G4 [1]): 14.0 (±0.6) °C

NHTGNSIRHRFRVYLSKRA [Myb^A415]
ΔT1/2 of c-KIT2 G4 (c-KIT2 G4 [1]): 17.8 (±0.5) °C

NHTGNSIRHRFRVYLSKAL [Myb^A414]
ΔT1/2 of c-KIT2 G4 (c-KIT2 G4 [1]): 10.7 (±0.6) °C

NHAGNSIRHRFRVYLSKRL [Myb^A399]
ΔT1/2 of c-KIT2 G4 (c-KIT2 G4 [1]): 18.5 (±0.2) °C

NATGNSIRHRFRVYLSKRL [Myb^A398]
ΔT1/2 of c-KIT2 G4 (c-KIT2 G4 [1]): 19.8 (±0.2) °C

RRWWRRWRR-GG-NHTGNSIRHRFRVYLSKRL [R6W3-Myb^397–415]
IC50 (U2OS cells; 72 h treatment, read-out: IC50 (concentration of drug capable of killing 50% of cells)): ~10000 nM

AGGGAGGGCGCTGGGAGGAGGG (structured_DNA) [c-KIT1]
Kd (FITC-Myb397-415 [5]; parallel G4): 340 ± 44 nM

GGGTACCCGGGTGAGGTGCGGGGT (structured_DNA) [VEGFR-17T]
binding result (FITC-Myb397-415 [5]; hybrid (mixed parallel/antiparallel) G4): no binding

TTGGGTTAGGGTTAGGGTTAGGGA (structured_DNA) [HT1]
Kd (FITC-Myb397-415 [5]; hybrid G4): 900 ± 140 nM
Kd (FITC-Myb397-415 [6]): 900 ± 140 nM

GGGCGCGGGAGGAATTGGGCGGG (structured_DNA) [BCL-2]
Kd (FITC-Myb397-415 [5]; hybrid G4): 280 ± 42 nM

B1: ds12 (dsDNA)
DNA 1: CGCGAATTCGCG
DNA 2: CGCGAATTCGCG
binding result (FITC-Myb397-415 [5]; blunt, self-complementary): no binding

TTAGGGTTAGGGTTAGGGTTAGGGTT (structured_DNA) [HT2]
Kd (FITC-Myb397-415 [5]; hybrid G4): 1180 ± 90 nM
Kd (FITC-Myb397-415 [6]): 1180 ± 90 nM

GGGTTTGGGTTTTGGGAGGG (structured_DNA) [LWDLN1]
binding result (FITC-Myb397-415 [5]; antiparallel G4): no binding

TGAGGGTGGGTAGGGTGGGTAA (structured_DNA) [c-MYC]
Kd (FITC-Myb397-415 [5]; parallel G4): 430 ± 100 nM

GGAGAAGGAGGAGGTGGAGGAGGAGGG (structured_DNA) [HER2]
Kd (Myb397-415): 100 ± 10 nM
Kd (FITC-Myb397-415 [5]; parallel G4): 130 ± 20 nM

TCGGGTTGCGGGCGCAGGGCACGGGCG (structured_DNA) [HRAS1]
binding result (FITC-Myb397-415 [5]; antiparallel G4): no binding

Reference: publication PMC11229374, “Unlocking the potential of protein-derived peptides to target G-quadruplex DNA: from recognition to anticancer activity” (Nucleic Acids Research, 2024)
